Test [1] concerns the target T1, BBP (β-carotene-binding protein), recombinant (Schistocerca gregaria, UniProt A0A6N3ISN1).
T1 construct: gene YPT; mature form residues 23-273, signal peptide removed; N-terminal His6 tag cleaved by 3C leaving GSHM; E. coli C41(DE3) making carotenoids
T1 sequence (A0A6N3ISN1 23-273): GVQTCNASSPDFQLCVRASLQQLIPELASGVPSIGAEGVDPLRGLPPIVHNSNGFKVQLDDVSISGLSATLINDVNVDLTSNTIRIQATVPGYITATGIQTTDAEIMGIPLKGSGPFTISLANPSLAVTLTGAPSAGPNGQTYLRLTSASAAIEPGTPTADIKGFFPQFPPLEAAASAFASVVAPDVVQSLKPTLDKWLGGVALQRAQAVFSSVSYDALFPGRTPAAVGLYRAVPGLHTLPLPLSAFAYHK
The experiment in a line: HPLC of carotenoids bound to purified protein. The note with it: late induction in ECH/CAN-producing E. coli; competing with β-carotene in membranes.

The target of another test is T2, BmCBP (Bombyx mori, UniProt Q8MYA9).
T2 construct: residues 68-297 (START domain), His-tag cleaved, preparation from previous work
T2 sequence (Q8MYA9 68-297): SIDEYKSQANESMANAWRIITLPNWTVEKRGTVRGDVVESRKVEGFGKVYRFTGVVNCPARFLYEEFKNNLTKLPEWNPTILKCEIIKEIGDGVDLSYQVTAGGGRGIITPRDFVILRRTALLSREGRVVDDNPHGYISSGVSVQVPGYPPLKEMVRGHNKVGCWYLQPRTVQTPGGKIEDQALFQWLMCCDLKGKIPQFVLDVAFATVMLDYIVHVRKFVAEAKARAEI
Description: induced UV/Vis circular dichroism, absorbance spectrum, SECmelt. Format: binding. The note with it: 20 mM phosphate pH 7.2 (CD); sample has excess apoform.

For test [2], the target named is T1, BBP (β-carotene-binding protein), recombinant. Description: HPLC of bound carotenoid, absorbance, CD and Raman spectra, SEC of holoprotein. The note with it: reconstituted in β-carotene-producing E. coli; 20 mM Tris-HCl pH 7.5, 150 mM NaCl.
The target in test [3] is native BBP extracted from the yellow locust cuticle (Schistocerca gregaria (endogenous in locust cuticle)). Description: SEC; clarified soluble extract of yellow locust cuticle on Superdex 200 Increase 5/150, 0.45 mL/min; 20 mM Tris-HCl pH 7.5, 150 mM NaCl, 3 mM βME, 0.5 mM PMSF; apparent Mw from column calibration. For orientation: Size exclusion chromatography separates by hydrodynamic size, large species first.

Test [4] has as its target recombinant β-carotene-binding protein from Schistocerca gregaria in complex with β-carotene, BBP(βCar) (Schistocerca gregaria). The experiment in a line: SEC; spectrochromatography on Superdex 200 Increase 5/150, 0.45 mL/min; 20 mM Tris-HCl pH 7.5, 150 mM NaCl, 3 mM βME, also with 2 M urea or 0.05% DOC, or 10 mM MES pH 6.0, 150 mM NaCl; apparent Mw from column calibration.

For test [5] the target is unchanged. Description: cross-linking; glutaraldehyde 0.23%, 15 min at 30 °C, 20 mM HEPES pH 7.5, 150 mM NaCl; analysed by SDS-PAGE.
Test [6] shares this target. Description: SEC-MALS; Superdex 200 Increase 10/300, 20 mM Tris pH 7.5, 150 mM NaCl, 3 mM βME, 0.8 mL/min; self-association of BBP(βCar).

“And” between values parts separate entries of the source, which are not always exact repeats. Equal entries are not always repeated.

As to `CC1=C(/C=C/C(C)=C/C=C/C(C)=C/C=C/C=C(C)/C=C/C=C(C)/C=C/C2=C(C)C(=O)CCC2(C)C)C(C)(C)CCC1=O` [CAN, canthaxanthin], the “HPLC of carotenoids bound to purified protein” value in test [1] was “also exhibits capacity to bind ECH and, less efficiently, CAN”.

In the case of `CC1=C(/C=C/C(C)=C/C=C/C(C)=C/C=C/C=C(C)/C=C/C=C(C)/C=C/C2=C(C)C(=O)CCC2(C)C)C(C)(C)CCC1` [ECH, echinenone], the “HPLC of carotenoids bound to purified protein” value in test [1] was “BBP avidly binds β-carotene but also exhibits capacity to bind ECH”.

On to `CC1=C(/C=C/C(C)=C/C=C/C(C)=C/C=C/C=C(C)/C=C/C=C(C)/C=C/C2=C(C)C[C@@H](O)CC2(C)C)C(C)(C)C[C@H](O)C1` [ZEA, zeaxanthin], for which the “induced UV/Vis circular dichroism, absorbance spectrum, SECmelt” value on BmCBP is “UV/Vis circular dichroism spectrum was distinctly different from that of the BmCBP complex with ZEA”. For `CC1=C(/C=C/C(C)=C/C=C/C(C)=C/C=C/C=C(C)/C=C/C=C(C)/C=C/C2=C(C)CCCC2(C)C)C(C)(C)CCC1` [βCar, β-carotene], the “HPLC of bound carotenoid, absorbance, CD and Raman spectra, SEC of holoprotein” value in test [2] was “recombinant BBP, like native BBP from locusts, indeed contains almost exclusively β-carotene”. One may read the stoichiometry N as the number of molecules, sites or subunits per partner or assembly. As to “native BBP extracted from the yellow locust cuticle (natural protein)”, the stoichiometry N in test [3] came out at 2.

As to “recombinant β-carotene-binding protein from Schistocerca gregaria in complex with β-carotene, BBP(βCar) (from UniProt A0A6N3ISN1 23-273) (natural protein)”, the stoichiometry N in test [4] was 2 and 4; in test [5], 4 and 2; in test [6] it was 2.

Source of the values: article PMC11009388, “Insights into the molecular mechanism of yellow cuticle coloration by a chitin-binding carotenoprotein in gregarious locusts” (Communications Biology, 2024).
